Reference: paper PMC9506480, “Synthesis and Evaluation of Antiproliferative Activity, Topoisomerase IIα Inhibition, DNA Binding and Non-Clinical Toxicity of New Acridine–Thiosemicarbazone Derivatives” (Pharmaceuticals, 2022)
Read-outs that look alike come from different tables or passages of the source.

Tested on: K-562 cells
Assay: MTT cytotoxicity assay on leukemic cells, K562
Format: cell-based
Details: Homo sapiens
Protocol: K562 (human erythroleukemic) and its multidrug-resistant counterpart, K562-Lucena 1, were obtained from the Tumor Immunology Laboratory (Federal University of Rio de Janeiro) (Rumjanek et al., 2001) and were cultured as recommended by Daflon-Yunes et al., 2013 [93, 106, 107].
CL-07, DL-01 and DL-08 compounds were evaluated for cell viability on K562 and K562-Lucena 1 cells using the colorimetric tetrazolium method (Mosmann, 1983). Cells were plated in 96-well plates. Compounds were dissolved in 1% (v/v) DMSO and RPMI-1640 medium (Sigma-Aldrich) in five serial concentrations from 1 to 50 µg/mL and were later added to each well and incubated for 72 h at 37 °C in a 5% CO2 humidified environment. As a positive control, 1 µM staurosporine was used. Then, the cells were treated with 20 µL of 5 mg/mL 3-(4,5-dimethylthiazol-2yl)-2,5-diphenyltetrazolium bromide solution (MTT solution in phosphate buffer solution) for 3 h. At the end of treatment, absorbances at 562 nm were measured using an iMark™ Microplate Absorbance Reader (iMark™, Hercules, CA, USA). Half-inhibitory concentration (IC50) was obtained by nonlinear regression with 95% confidence intervals (CI 95%) using GraphPad Prism software (Intuitive Software for Science; San Diego, CA, USA).

[1] = MTT, 72 h, read-out: IC50 K-562
[2] = range over both cell lines and both compounds, read-out: IC50 on leukemic cells (K-562 and K-562 Lucena 1)

Oc1ccc(/C=N/NC(=S)Nc2c3ccccc3nc3ccccc23)cc1 [CL-07, (E)-N-(acridin-9-yl)-2-(4-hydroxybenzylidene)hydrazine-1-carbothioamide]
IC50 [1]: 45.5 µM

COc1ccc2nc3cc(Cl)ccc3c(NC(=S)N/N=C/c3cccc(O)c3)c2c1 [DL-08, (E)-N-(6-chloro-2-methoxyacridin-9-yl)-2-(3-hydroxybenzylidene)hydrazine-1-carbothioamide]
IC50 [1]: 17.3 µM
IC50 [2]: 11.5 to 17.3 µM

COc1ccc2nc3cc(Cl)ccc3c(NC(=S)N/N=C/c3ccccc3)c2c1 [DL-01, (E)-2-benzylidene-N-(6-chloro-2-methoxyacridin-9-yl)hydrazine-1-carbothioamide]
IC50 [1]: 11.5 µM
IC50 [2]: 11.5 to 17.3 µM
